This is an account of results in patent US5247084A, “Derivatives of p-guanidinobenzoic acid” (priority 1985, dated 1993).

Data set [1] in a line: acute toxicity test in mice by intravenous administration. Particulars: mouse, in vivo.
Data set [2] addresses T1, elastase from human neutrophil (Homo sapiens, UniProt P08246).
T1 construct: using elastase from human neutrophil; from tissue; host or cells: human neutrophil
T1 sequence (P08246 30-247 limits assumed): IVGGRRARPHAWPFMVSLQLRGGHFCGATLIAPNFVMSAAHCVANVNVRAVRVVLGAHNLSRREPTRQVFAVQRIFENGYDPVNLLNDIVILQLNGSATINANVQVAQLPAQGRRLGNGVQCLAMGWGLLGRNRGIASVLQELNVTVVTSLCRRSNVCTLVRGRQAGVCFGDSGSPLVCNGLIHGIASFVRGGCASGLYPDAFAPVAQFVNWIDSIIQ
Nature of the data set: Inhibitory effect on elastase (spectrophotometric method, substrate Suc-Ala-Pro-Ala-pNA). In kind it is biochemical. Conditions: for IC50: pH 8.0, 37° C., 30 minutes.
Description: The test was carried out by the slight modification of the method of Bieth et al [see Biochem. Med., 75, 350 (1974)] using elastase from human neutrophil.
The reaction mixture consisted of 1 mM Suc-Ala-Pro-Ala-pNA (dissolving in N-methylpyrrolidone to the concentration of 100 mM, and then adding 1/100 amount of the solution to the reaction mixture.), 0.1 M buffer solution of tris-hydrochloric acid (pH 8.0), 0.2 M sodium chloride aqueous solution, the sample solution of various concentrations and enzyme solution in a final volume of 1.0 ml was incubated at 37° C. for 30 minutes.
The reaction was stopped by the addition of 100 μl of 50% acetic acid into the reaction mixture, and then p-nitro anilide released was measured on absorbance of 405 nm.
Inhibition percentage of the test compounds was caliculated by the following equation: [formula]

Setting [3] is: Y represents an oxygen atom, read-out: Inhibitory Effect on Elastase, IC50.
[4] abbreviates: Y represents a sulfur atom, read-out: Elastase Inhibitory Effect, IC50.
Where [5] appears, read: at 50 μg/ml, Y represents a sulfur atom, read-out: Elastase Inhibitory Effect, Inhibition %.

Where a name gives a salt, the structure may show the parent alone. Read-outs that look alike come from different tables or passages of the source.

Regarding `CCN(CC)S(=O)(=O)c1ccc(SC(=O)c2ccc(NC(=N)N)cc2)cc1Cl`, the LD50 (usually the dose expected to kill half of the subjects tested) in data set [1] was in the range of 50 to 150 mg/kg.
Still for that read-out and setting: next, `CCS(=O)(=O)Oc1cc(Cl)cc(SC(=O)c2ccc(NC(=N)N)cc2)c1`: 50 to 150 mg/kg; `N=C(N)Nc1ccc(C(=O)Sc2cc(O)cc(Cl)c2)cc1` [3-chloro-5-hydroxy (Y = sulfur atom)]: 50 to 150 mg/kg.
`N=C(N)Nc1ccc(C(=O)Oc2cc(Cl)ccc2Cl)cc1` [Example 37] had an LD50 in data set [1] of 50 to 150 mg/kg. The IC50 (as a rule, the point on the concentration scale where inhibition reaches its midpoint) in data set [2] (setting [3]) stood at 1.1 µM. Besides, the inhibition (usually the drop in the measured response relative to a control, in per cent) at 100 µM in data set [2] (Y represents an oxygen atom) turned out to be 85.8%.
In turn, `CC(=O)O.CCS(=O)(=O)Oc1cc(Cl)cc(OC(=O)c2ccc(NC(=N)N)cc2)c1` [Example 75, p-guanidinobenzoic acid 3-chloro-5-ethanesulfonyloxyphenyl ester acetate] displayed an LD50 in data set [1] of 50 to 150 mg/kg. The IC50 in data set [2] (setting [3]) amounted to 1.1 µM.
Taken in the same sequence, the figures for `CCN(CC)S(=O)(=O)c1ccc(OC(=O)c2ccc(NC(=N)N)cc2)cc1Cl` [Example 94] were 50 to 150 mg/kg and 22 µM.
On to `N=C(N)Nc1ccc(C(=O)Oc2cc(Cl)cc(C(=O)Nc3ccc(S(N)(=O)=O)cc3)c2)cc1` [Example 102], for which the IC50 in data set [2] (setting [3]) turned out to be 1.3 µM.
For `CN(C)S(=O)(=O)c1ccc(NC(=O)c2cc(Cl)cc(OC(=O)c3ccc(NC(=N)N)cc3)c2)cc1` [Example 103], the IC50 in data set [2] (setting [3]) came to 0.95 µM.
Same read-out and setting: next, `CCN(CC)S(=O)(=O)c1ccc(NC(=O)c2cc(Cl)cc(OC(=O)c3ccc(NC(=N)N)cc3)c2)cc1` [Example 104]: 1.1 µM; `CS(=O)(=O)Nc1ccc(Cl)c(OC(=O)c2ccc(NC(=N)N)cc2)c1` [Example 105]: 8.5 µM.
Take `CCS(=O)(=O)Nc1cc(Cl)cc(OC(=O)c2ccc(NC(=N)N)cc2)c1` [Example 106]: the IC50 in data set [2] (setting [3]) was determined as 15 µM.
As to `N=C(N)Nc1ccc(C(=O)Oc2cccc([N+](=O)[O-])c2)cc1` [Example 107], the IC50 in data set [2] (setting [3]) was 11 µM. This compound also registered an inhibition at 100 µM in data set [2] (Y represents an oxygen atom) of 87%.
With `N=C(N)Nc1ccc(C(=O)Oc2ccc([N+](=O)[O-])cc2)cc1` [Example 108], the IC50 in data set [2] (setting [3]) stood at 120 µM. Besides, the inhibition at 100 µM in data set [2] (Y represents an oxygen atom) was found to be 60.1%.
For the compound `Cc1cc(O)cc(OC(=O)c2ccc(NC(=N)N)cc2)c1` [Example 109], the half-inhibitory concentration (IC50) in data set [2] (setting [3]) worked out at 160 µM.
Same read-out and setting: then `COc1cc(O)cc(OC(=O)c2ccc(NC(=N)N)cc2)c1` [Example 110], with 20 µM.
In data set [2] (Y represents an oxygen atom), `COC(=O)c1cc(O)cc(OC(=O)c2ccc(NC(=N)N)cc2)c1` [Example 111] came in with an inhibition at 100 µM of 45%.
In data set [1], `CS(=O)(=O)O.N=C(N)Nc1ccc(C(=O)Oc2cc(O)cc(Cl)c2)cc1` [Example 112, p-guanidinobenzoic acid 3-chloro-5-hydroxyphenyl ester methanesulfonate] gave an LD50 of 50 to 150 mg/kg. Further, in data set [2] (setting [3]), the IC50 worked out at 8.3 µM.
Turning to `N=C(N)Nc1ccc(C(=O)Oc2cc(O)cc(OC(=O)c3ccc(NC(=N)N)cc3)c2)cc1` [Example 113], in data set [2] (Y represents an oxygen atom), the inhibition at 100 µM was 42%.
In data set [2] (Y represents an oxygen atom), `CNC(=O)c1cc(O)cc(OC(=O)c2ccc(NC(=N)N)cc2)c1` [Example 114] showed an inhibition at 100 µM of 22%.
With `N=C(N)Nc1ccc(C(=O)Oc2cc(O)cc(C(=O)NCc3ccccc3)c2)cc1` [Example 115], the IC50 in data set [2] (setting [3]) is 88 µM.
As to `N=C(N)Nc1ccc(C(=O)Oc2cccc(NC(=N)N)c2)cc1` [Example 116], the inhibition at 100 µM in data set [2] (Y represents an oxygen atom) turned out to be 20%.
As to `N=C(N)Nc1ccc(OC(=O)c2ccc(NC(=N)N)cc2)cc1` [Example 117], the IC50 in data set [2] (setting [3]) was > 100 µM.
The same measure, in the same setting: then `N=C(N)Nc1ccc(C(=O)Oc2cc(NC(=N)N)ccc2Cl)cc1` [Example 118], with 47 µM; and `N=C(N)Nc1ccc(C(=O)Oc2cc(Cl)cc(OCc3ccccc3)c2)cc1` [Example 119], with 4.7 µM.
The same measure, in the same setting: then `N=C(N)Nc1ccc(SCc2cc(Cl)cc(OC(=O)c3ccc(NC(=N)N)cc3)c2)cc1` [Example 120], with 6 µM; and `N=C(N)Nc1ccc(C(=O)Oc2cc(Cl)cc(COc3cccnc3)c2)cc1` [Example 121], with 1.1 µM.
On the same count and under the same terms, next, `COc1cc(OC(=O)c2ccc(NC(=N)N)cc2)cc(C(=O)N2CCS(=O)(=O)C2)c1` [Example 122]: 12 µM.
Regarding `N=C(N)Nc1ccc(C(=O)Oc2cc(Cl)cc(C(=O)N3CCS(=O)(=O)C3)c2)cc1` [Example 123], the IC50 in data set [2] (setting [3]) is 3.1 µM.
In turn, `N=C(N)Nc1ccc(C(=O)Sc2ccccc2)cc1` [Example 124] yielded an LD50 in data set [1] of 50 to 150 mg/kg. For the same compound, the IC50 in data set [2] (setting [4]) stood at 2.1 µM. Also, the inhibition at 50 µg/mL in data set [2] (setting [5]) was found to be 94%.
With `Cc1ccccc1SC(=O)c1ccc(NC(=N)N)cc1` [Example 125], the IC50 in data set [2] (setting [4]) was 20 µM. Besides, the inhibition at 50 µg/mL in data set [2] (setting [5]) was 76.3%.
For `Cc1cccc(SC(=O)c2ccc(NC(=N)N)cc2)c1` [Example 126] the same measures were 5 µM and 89.7%.
Take `Cc1ccc(SC(=O)c2ccc(NC(=N)N)cc2)cc1` [Example 127]: in data set [2] (setting [5]), the inhibition at 50 µg/mL came to 29.3%.
For the compound `COc1ccccc1SC(=O)c1ccc(NC(=N)N)cc1` [Example 128], the IC50 in data set [2] (setting [4]) turned out to be 21 µM. The inhibition at 50 µg/mL in data set [2] (setting [5]) was determined as 79.8%.
Taken in the same sequence, the figures for `COc1cccc(SC(=O)c2ccc(NC(=N)N)cc2)c1` [Example 129] were 6.4 µM and 89.2%.
For the compound `COc1ccc(SC(=O)c2ccc(NC(=N)N)cc2)cc1` [Example 130], the inhibition at 50 µg/mL in data set [2] (setting [5]) was determined as 48.2%.
For `N=C(N)Nc1ccc(C(=O)Sc2ccc(F)cc2)cc1` [Example 131], the IC50 in data set [2] (setting [4]) came to 21 µM. Also, in data set [2] (setting [5]), the inhibition at 50 µg/mL was found to be 83%.
Consider `N=C(N)Nc1ccc(C(=O)Sc2ccccc2Cl)cc1` [Example 132], for which, in data set [2] (setting [4]), the IC50 worked out at 1.8 µM. In data set [2] (setting [5]), the inhibition at 50 µg/mL was found to be 93%.
For `N=C(N)Nc1ccc(C(=O)Sc2cccc(Cl)c2)cc1` [Example 133] the same measures were 0.3 µM and 81.2%.
Consider `N=C(N)Nc1ccc(C(=O)Sc2ccc(Cl)cc2)cc1` [Example 134], for which the inhibition at 50 µg/mL in data set [2] (setting [5]) is 69.5%.
`N=C(N)Nc1ccc(C(=O)Sc2cc(Cl)ccc2Cl)cc1` [Example 135, p-guanidinobenzoic acid 2,5-dichlorothiophenyl ester methanesulfonate]: in data set [1], the LD50 is 50 to 150 mg/kg. The IC50 in data set [2] (setting [4]) was found to be 0.1 µM. Further, in data set [2] (setting [5]), the inhibition at 50 µg/mL is 92.1%.
`N=C(N)Nc1ccc(C(=O)Sc2c(Cl)cccc2Cl)cc1` [Example 136]: in data set [2] (setting [4]), the IC50 is 45 µM. Besides, the inhibition at 50 µg/mL in data set [2] (setting [5]) is 64.5%.
On to `N=C(N)Nc1ccc(C(=O)Sc2ccc(Cl)c(Cl)c2)cc1` [Example 137], for which the inhibition at 50 µg/mL in data set [2] (setting [5]) turned out to be 35.5%.
As to `N=C(N)Nc1ccc(C(=O)Sc2ccccc2Br)cc1` [Example 138], the IC50 in data set [2] (setting [4]) came out at 1.6 µM. The inhibition at 50 µg/mL in data set [2] (setting [5]) turned out to be 83.1%.
Turning to `N=C(N)Nc1ccc(C(=O)Sc2ccc(C(=O)O)cc2)cc1` [Example 139], the inhibition at 50 µg/mL in data set [2] (setting [5]) was 23.2%.
Still for that read-out and setting: next, `N=C(N)Nc1ccc(C(=O)Sc2ccc(CC(=O)O)cc2)cc1` [Example 140]: 47.8%.
On to `COC(=O)c1ccccc1SC(=O)c1ccc(NC(=N)N)cc1` [Example 141], for which the IC50 in data set [2] (setting [4]) was determined as 2.6 µM. Further, the inhibition at 50 µg/mL in data set [2] (setting [5]) is 96.3%.
As to `CCOC(=O)c1ccc(SC(=O)c2ccc(NC(=N)N)cc2)cc1` [Example 142], the inhibition at 50 µg/mL in data set [2] (setting [5]) is 69.1%.
Same read-out and setting: then `CCOC(=O)Cc1ccc(SC(=O)c2ccc(NC(=N)N)cc2)cc1` [Example 144], with 75.5%.
For `N=C(N)Nc1ccc(C(=O)Sc2ccc([N+](=O)[O-])cc2)cc1` [Example 145], in data set [2] (setting [4]), the IC50 was 18 µM. In data set [2] (setting [5]), the inhibition at 50 µg/mL worked out at 64.2%.
For `CCN(CC)S(=O)(=O)c1ccc(SC(=O)c2ccc(NC(=N)N)cc2)cc1` [Example 146] the same measures were 11 µM and 73.1%.
Turning to `N=C(N)Nc1ccc(C(=O)Oc2cccc(C(=O)O)c2Cl)cc1` [Example 147, P-guanidinobenzoic acid 3-carboxy-2-chlorophenylester hydrobromide], the IC50 in data set [2] (setting [3]) was 20 µM.
Compound `N=C(N)Nc1ccc(C(=O)Oc2cc(C(=O)O)cc(C(=O)O)c2)cc1` [Example 148] showed an inhibition at 100 µM in data set [2] (Y represents an oxygen atom) of 25%.
For `N=C(N)Nc1ccc(C(=O)Oc2cc(Cl)ccc2C(=O)O)cc1` [Example 149], the IC50 in data set [2] (setting [3]) was determined as 60 µM.
On the same count and under the same terms, then `N=C(N)Nc1ccc(C(=O)Oc2cc(Cl)cc(CO)c2)cc1` [Example 150, P-guanidinobenzoic acid 3-chloro-5-hydroxymethylphenylester acetate], with 4.5 µM; and `N=C(N)Nc1ccc(C(=O)Oc2cc(Cl)cc(COc3ccc(S(=O)(=O)N4CCOCC4)cc3)c2)cc1` [Example 151, P-guanidinobenzoic acid 3-chloro-5-(4-morpholinosulfonyl)phenoxymethylphenylester acetate], with 1.4 µM; and `COc1cc(COc2ccc(S(=O)(=O)N3CCOCC3)cc2)cc(OC(=O)c2ccc(NC(=N)N)cc2)c1` [Example 152, p-guanidinobenzoic acid 3-methoxy-5-(4-morpholinosulfonyl)phenoxymethylphenylester acetate], with 7 µM.
`N=C(N)Nc1ccc(C(=O)Oc2ccccc2)cc1` [hydrogen, reference compound] returned an LD50 in data set [1] of 50 to 150 mg/kg. Besides, in data set [2] (at 50 μg/ml (footnote 2), Y represents an oxygen atom, read-out: Inhibitory Effect on Elastase, Inhibition %), the inhibition at 50 µg/mL was 54.6%.
